Consider six compounds from patent US20060002960A1 (priority 2003, published 2006).

One data set has as its system LT or CT. Particulars: cited from earlier work.
In data set [1] the test system is mice. The following applies: mouse, in vivo.
Data set [2] relates to C57B1/6 mice. Particulars: mouse, in vivo.
Data set [3] relates to mice. The following applies: mouse, in vivo. This is another data set of the same source.
For data set [4], the system named is mice. Particulars: mouse, in vivo. This is another data set of the same source.
The subject of data set [5] is C57B1/6 mice. Particulars: mouse, in vivo. The source holds these as a separate data set.
For data set [6] the following is noted: cited from earlier work.
The test system of data set [7] is C57B1/6 mice. The following applies: mouse, in vivo. This is another data set of the same source.
In data set [8] the test system is mice. Particulars: mouse, in vivo. The source holds these as a separate data set.
In data set [9] the test system is C57B1/6 mice. Particulars: mouse, in vivo. This is another data set of the same source.
Data set [10] has as its system C57B1/6 mice. Particulars: mouse, in vivo. This is another data set of the same source.
Data set [11] relates to C57B1/6 mice. Particulars: mouse, in vivo. The source holds these as a separate data set.
For the next data set, the system named is Y-1 adrenal cells. In kind it is cell-based.
A further data set deals with Balb/c mice. Particulars: mouse, in vivo, po.
The test system of data set [12] is C57B1/6 mice. Particulars: mouse, in vivo. This is another data set of the same source.
The subject of data set [13] is C57B1/6 mice. Particulars: mouse, in vivo. This is another data set of the same source.

Several values for one entry are separate records, joined by “and”; a condition that tells them apart may be missing. Equal values may be shown once. Read-outs that look alike come from different tables or passages of the source.

Broadly, the IC50 is the concentration that inhibits the measured activity by half. With `O=[N+]([O-])c1cccc(OC2OC(CO)C(O)C(O)C2O)c1` (stereo not drawn) [m-nitrophenyl α-galactoside], the IC50 in the data set with LT or CT is 600 to 700 µM.
Take cholera toxin [CT]: in the data set on mice [1], the “inflammatory response after IM injection” value is recorded as “muscle swelling”. In the data set on C57B1/6 mice [2], the “TT IgG, Assay values (Elisa Units) Individual Mice” value (“TT IgG, Assay values” for short) was 11222 Elisa Units and 14300 Elisa Units and 29533 Elisa Units and 63092 Elisa Units and 125687 Elisa Units; the “TT IgG, Geometric mean” value is on record as 32734 Elisa Units; the “fold greater antibody titers to TT than the non-adjuvanted vaccine” value came to 105 fold. In the data set on mice [3], the “TT IgG, Assay values” value is 71077 Elisa Units and 113082 Elisa Units and 75238 Elisa Units and 123721 Elisa Units and 61438 Elisa Units; the “TT IgG, Geometric mean” value worked out at 85603 Elisa Units; the “fold higher antibody titers to TT than the non-adjuvanted vaccine” value worked out at 426 fold. Besides, in the data set on mice [4], the “TT IgG, Geometric mean” value is listed as 95419 Elisa Units; the “fold higher titers than the non-adjuvanted vaccine” value came out at 823 fold; the “fold more active than CT/GM1” value is 1.6 to 3 fold. Besides, the “skin nodules / inflammatory response after intradermal injection” value (“skin nodules / inflammatory response” for short) with C57B1/6 mice [5] is on record as “skin nodules”. In addition, the Kd in data set [6] was 0.0006 µM.
Take `O=C(O)[C@H](O)[C@@H](O)[C@H](O)[C@H](O)CO[C@H]1O[C@H](CO)[C@H](O)[C@H](O)[C@H]1O` [melibionic acid]: in the data set with LT or CT, the 50% inhibitory concentration (IC50) was 5000 to 11000 µM.
As to “Escherichia coli heat-labile enterotoxin [LT]”, the “anti-LT antibody titers GMT” value with C57B1/6 mice [7] was 196,000. In addition, the “times more IFNγ and IL4 producing lymphocytes compared to TT alone” value in the data set on mice [8] is given as 10 times. Moreover, in the data set with C57B1/6 mice [9], the “anti-TT IgG titers GMT” value is given as 150,000 and the “anti-TT titers” value is listed as “significantly increased”. For the same compound, the “inflammatory response after IM injection” value in the data set with mice [1] is on record as “swelling of the thigh muscle”. Moreover, in the data set with mice [1] (sc), the “inflammatory response after SC injection” value is “formation of a large nodule”. Also, in the data set on C57B1/6 mice [10], the “anti-OVA antibody titers GMT” value was 32,000. In addition, in the data set with C57B1/6 mice [11], the “Flu A IgG, Assay values (Elisa Units) Individual Mice” value was 150 Elisa Units and 102 Elisa Units and 47 Elisa Units and 45 Elisa Units and 642 Elisa Units and 15498 Elisa Units and 3137 Elisa Units and 6852 Elisa Units and 18563 Elisa Units and 28151 Elisa Units. The “rounding of cultured cells” value with Y-1 adrenal cells is 70-100%. In the data set on Y-1 adrenal cells (0.05 ng/ml, 6-8 h), the “percentage of rounded cells” value was “−−− (key: +++ 70-100% rounded cells; ++ 50-75%; + 25-50%; −−− <25%)”. For the same compound, in the data set on Y-1 adrenal cells (0.1 ng/ml, 6-8 h), the “percentage of rounded cells” value is on record as “−−− (key: +++ 70-100% rounded cells; ++ 50-75%; + 25-50%; −−− <25%)”. Moreover, the “percentage of rounded cells” value with Y-1 adrenal cells (0.2 ng/ml, 6-8 h) was “+ (key: +++ 70-100% rounded cells; ++ 50-75%; + 25-50%; −−− <25%)”. The “percentage of rounded cells” value in the data set with Y-1 adrenal cells (0.4 ng/ml, 6-8 h) is on record as “++ (key: +++ 70-100% rounded cells; ++ 50-75%; + 25-50%; −−− <25%)”. The “percentage of rounded cells” value in the data set on Y-1 adrenal cells (0.8 ng/ml, 6-8 h) is listed as “+++ (key: +++ 70-100% rounded cells; ++ 50-75%; + 25-50%; −−− <25%)”. Also, in the data set with Y-1 adrenal cells (1.6 ng/ml, 6-8 h), the “percentage of rounded cells” value is “+++ (key: +++ 70-100% rounded cells; ++ 50-75%; + 25-50%; −−− <25%)”. The “percentage of rounded cells” value in the data set on Y-1 adrenal cells (3.1 ng/ml, 6-8 h) is recorded as “+++ (key: +++ 70-100% rounded cells; ++ 50-75%; + 25-50%; −−− <25%)”. In addition, the “percentage of rounded cells” value with Y-1 adrenal cells (6.3 ng/ml, 6-8 h) is “+++ (key: +++ 70-100% rounded cells; ++ 50-75%; + 25-50%; −−− <25%)”. In addition, the “percentage of rounded cells” value in the data set on Y-1 adrenal cells (12.5 ng/ml, 6-8 h) is “+++ (key: +++ 70-100% rounded cells; ++ 50-75%; + 25-50%; −−− <25%)”. In addition, the “percentage of rounded cells” value in the data set on Y-1 adrenal cells (25 ng/ml, 6-8 h) is given as “+++ (key: +++ 70-100% rounded cells; ++ 50-75%; + 25-50%; −−− <25%)”. Moreover, the “percentage of rounded cells” value with Y-1 adrenal cells (50 ng/ml, 6-8 h) is reported as “+++ (key: +++ 70-100% rounded cells; ++ 50-75%; + 25-50%; −−− <25%)”. Further, the “percentage of rounded cells” value with Y-1 adrenal cells (100 ng/ml, 6-8 h at 37° C.) is “+++ (key: +++ 70-100% rounded cells; ++ 50-75%; + 25-50%; −−− <25%)”. In the data set on C57B1/6 mice [2], the “TT IgG, Assay values” value was 188314 Elisa Units and 222731 Elisa Units and 178753 Elisa Units and 88333 Elisa Units and 192934 Elisa Units and 201494 Elisa Units and 169482 Elisa Units and 379919 Elisa Units and 73992 Elisa Units and 615173 Elisa Units and 204102 Elisa Units and 146225 Elisa Units and 183724 Elisa Units and 323948 Elisa Units and 202170 Elisa Units and 185486 Elisa Units and 85832 Elisa Units and 163652 Elisa Units and 208284 Elisa Units and 83436 Elisa Units and 63293 Elisa Units and 50116 Elisa Units and 121818 Elisa Units and 176340 Elisa Units and 114780 Elisa Units and 131805 Elisa Units and 6246 Elisa Units and 11745 Elisa Units and 31797 Elisa Units; the “anti-TT IgG GMT” value is 282,000; the “fold greater anti-TT IgG titers than the non-adjuvanted group” value is listed as 34 fold; the “immune response to co-administered TT” value was “significantly enhanced”. The “fold increase in G:C compared to the buffer control group” value in the data set on Balb/c mice is recorded as 2.4 fold. In addition, the “examination of the injection sites” value in the data set with mice [4] is “developed edema and inflammation at the site of injection”. Besides, in the data set on C57B1/6 mice [5], the “histological examination of injection site” value was “elicited an inflammatory response that persisted for days”; the “mice with inflammatory response” value was 4 of 7; the persistence of induration result is recorded as “greater than 2 weeks”; the “skin nodules (incidence, words)” value is given as “did not cause skin nodules in six out of the seven injected mice”. In the data set with C57B1/6 mice [5], the “skin nodules / inflammatory response” value is listed as “caused skin nodules in all mice” and the toxin-induced inflammation result is listed as “completely abolished”. Moreover, in the data set on C57B1/6 mice [12], the “Anti-OVA titers GMT” value is 51,000, the “anti-LT IgG titers GMT” value is 30,000 and the “fold increase of Anti-OVA titers” value is reported as 37 fold. Also, the Kd in data set [6] is 0.0007 µM. Further, in the data set on C57B1/6 mice [13], the “lymph node cell response to re-stimulation with OVA or LT” value is “did respond to in vitro re-stimulation with OVA or LT by producing IFN-γ and IL-4”; the “spleen cell IFN-γ response to re-stimulation” value is “did respond to re-stimulation by producing IFN-γ”.
As for `Nc1ccc(OC2OC(CO)C(O)C(O)C2O)cc1` (stereo not drawn) [p-aminophenyl α-galactoside], the IC50 with LT or CT is 4800 to 12000 µM.
“Gal-β1,3-GalNAc-β1,4-(NeuAc-α2,3)-Gal-β1,4-Glc-β1,1-ceramide [GM1]”: in the data set on C57B1/6 mice [5], the “Diameter skin nodules, Average Mean ± SD” value came out at 0 cm; the “Diameter skin nodules, Individual Mice” value worked out at 0 cm; the “skin nodules / inflammatory response” value is recorded as “not inflammatory”. In addition, at LT or CT (read-out: affinity), the Kd is 0.0001 to 0.01 µM.
